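A five-concentration, 48-hour dose response in 96-well plates underlies each endpoint, interpolated linearly between surrounding concentrations. The concentration for 50% growth inhibition is given as GI50.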 Active and inactive are the calls of the source. No stated cut-off is given here; in the data, active = GI50 up to about 1.1 µM and inactive = higher.
Key:
Experiment in all cases: NCI-60 cell line screen, 48 h
HOP-92 = tested on: HOP-92
OVCAR-3 = tested on: OVCAR-3
M14 = tested on: M14
CCRF-CEM = tested on: CCRF-CEM
NCI-H460 = tested on: NCI-H460
DLD-1 = tested on: DLD-1
OVCAR-8 = tested on: OVCAR-8
HCT-116 = tested on: HCT-116
COLO 205 = tested on: COLO 205
SR = tested on: SR
A498 = tested on: A498
OVCAR-4 = tested on: OVCAR-4
U-251 = tested on: U-251
LOX IMVI = tested on: LOX IMVI
SN12C = tested on: SN12C
OVCAR-5 = tested on: OVCAR-5
PC-3 = tested on: PC-3
MCF7 = tested on: MCF7
NCI/ADR-RES = tested on: NCI/ADR-RES
T47D = tested on: T47D

Cc1cc(C)nc(NS(=O)(=O)c2ccc(Nc3c4ccc(Cl)cc4nc4c(C(=O)NCCN(C)C)cccc34)cc2)n1
GI50 (HOP-92): 78 µM (inactive)
GI50 (OVCAR-3): > 100 µM (inactive)
GI50 (M14): > 100 µM (inactive)
GI50 (CCRF-CEM): > 100 µM (inactive)
GI50 (NCI-H460): > 100 µM (inactive)
GI50 (DLD-1): > 100 µM (inactive)
GI50 (OVCAR-8): > 100 µM (inactive)
GI50 (HCT-116): > 100 µM (inactive)
GI50 (COLO 205): > 100 µM (inactive)
GI50 (SR): 55.7 µM (inactive)
GI50 (A498): > 100 µM (inactive)
GI50 (OVCAR-4): > 100 µM (inactive)
GI50 (U-251): > 100 µM (inactive)
GI50 (LOX IMVI): > 100 µM (inactive)
GI50 (SN12C): > 100 µM (inactive)
GI50 (OVCAR-5): > 100 µM (inactive)

CC(=O)OCc1cc(OC(C)=O)cnc1COC(C)=O
GI50 (HOP-92): > 100 µM (inactive)
GI50 (OVCAR-3): > 100 µM (inactive)
GI50 (M14): > 100 µM (inactive)
GI50 (CCRF-CEM): > 100 µM (inactive)
GI50 (NCI-H460): > 100 µM (inactive)
GI50 (DLD-1): > 100 µM (inactive)
GI50 (OVCAR-8): > 100 µM (inactive)
GI50 (HCT-116): > 100 µM (inactive)
GI50 (COLO 205): > 100 µM (inactive)
GI50 (SR): > 100 µM (inactive)
GI50 (A498): > 100 µM (inactive)
GI50 (OVCAR-4): > 100 µM (inactive)
GI50 (U-251): > 100 µM (inactive)
GI50 (LOX IMVI): > 100 µM (inactive)
GI50 (SN12C): > 100 µM (inactive)
GI50 (OVCAR-5): > 100 µM (inactive)

O=C(O)CSc1nnc(/C=C/c2ccccc2)[nH]1
GI50 (HOP-92): > 100 µM (inactive)
GI50 (OVCAR-3): > 100 µM (inactive)
GI50 (M14): > 100 µM (inactive)
GI50 (CCRF-CEM): > 100 µM (inactive)
GI50 (NCI-H460): > 100 µM (inactive)
GI50 (DLD-1): > 100 µM (inactive)
GI50 (OVCAR-8): > 100 µM (inactive)
GI50 (HCT-116): > 100 µM (inactive)
GI50 (COLO 205): > 100 µM (inactive)
GI50 (SR): > 100 µM (inactive)
GI50 (A498): > 100 µM (inactive)
GI50 (OVCAR-4): > 100 µM (inactive)
GI50 (U-251): > 100 µM (inactive)
GI50 (LOX IMVI): > 61.2 µM (inactive)
GI50 (SN12C): > 100 µM (inactive)
GI50 (OVCAR-5): > 100 µM (inactive)

CC(C)[C@](O)(C(=O)OCC1=CC[N+]2([O-])CC[C@@H](O)[C@@H]12)[C@H](C)O (stereo not given in full) [INDICINE N-OXIDE]
GI50 (HOP-92): > 9730 µM (inactive)
GI50 (PC-3): > 10000 µM (inactive)
GI50 (OVCAR-3): 9910 µM (inactive)
GI50 (M14): > 10000 µM (inactive)
GI50 (MCF7): > 10000 µM (inactive)
GI50 (CCRF-CEM): > 9160 µM (inactive)
GI50 (NCI-H460): 5960 µM (inactive)
GI50 (DLD-1): > 10000 µM (inactive)
GI50 (OVCAR-8): 8110 µM (inactive)
GI50 (HCT-116): > 10000 µM (inactive)
GI50 (NCI/ADR-RES): > 10000 µM (inactive)
GI50 (COLO 205): > 5940 µM (inactive)
GI50 (SR): 4630 µM (inactive)
GI50 (A498): 8970 µM (inactive)
GI50 (OVCAR-4): > 10000 µM (inactive)
GI50 (U-251): > 8570 µM (inactive)
GI50 (LOX IMVI): > 7800 µM (inactive)
GI50 (T47D): > 10000 µM (inactive)
GI50 (SN12C): 8870 µM (inactive)
GI50 (OVCAR-5): > 10000 µM (inactive)

CN(C)CCNC(=O)c1ccc(C(=O)NCCN(C)C)c2nc3ccccc3cc12
GI50 (HOP-92): 1.41 µM (inactive)
GI50 (OVCAR-3): 1.77 µM (inactive)
GI50 (M14): 1.39 µM (inactive)
GI50 (CCRF-CEM): 0.676 µM (active)
GI50 (NCI-H460): 0.384 µM (active)
GI50 (DLD-1): 0.516 µM (active)
GI50 (OVCAR-8): 0.571 µM (active)
GI50 (HCT-116): 0.301 µM (active)
GI50 (COLO 205): 0.469 µM (active)
GI50 (SR): 0.399 µM (active)
GI50 (A498): 1.15 µM (inactive)
GI50 (OVCAR-4): 0.697 µM (active)
GI50 (U-251): 0.533 µM (active)
GI50 (LOX IMVI): 0.519 µM (active)
GI50 (SN12C): 0.83 µM (active)
GI50 (OVCAR-5): 1.22 µM (inactive)

CCOc1ccc(/C=C/c2cc(OC)c(OC)c(OC)c2)cc1
GI50 (HOP-92): 10.8 µM (inactive)
GI50 (OVCAR-3): 0.596 µM (active)
GI50 (M14): 0.841 µM (active)
GI50 (CCRF-CEM): 1.86 µM (inactive)
GI50 (NCI-H460): 1.05 µM (active)
GI50 (DLD-1): 1.9 µM (inactive)
GI50 (OVCAR-8): 3.9 µM (inactive)
GI50 (HCT-116): 0.561 µM (active)
GI50 (COLO 205): 0.635 µM (active)
GI50 (SR): 2.46 µM (inactive)
GI50 (A498): 0.439 µM (active)
GI50 (OVCAR-4): 11.7 µM (inactive)
GI50 (U-251): 0.867 µM (active)
GI50 (LOX IMVI): 1.59 µM (inactive)
GI50 (SN12C): 4.02 µM (inactive)
GI50 (OVCAR-5): > 100 µM (inactive)

— ChEMBL document CHEMBL1201862, “PubChem BioAssay data set” (2004)
